Laboratory results: paper PMC6384574, “Colistin Use in Patients with Chronic Kidney Disease: Are We Underdosing Patients?” (Molecules, 2019)
Positions of bridges follow the written chain, without caps; N, C: chain ends. Non-standard residues stand in square brackets, D forms with d. Residues, ends and D or L forms follow the SMILES beside them. *: point of attachment. X1 = CC[C@H](C)CCCCC(=O)*; Dab = NCC[C@H](N)C(=O)O

Tests used:
[1] = cited from earlier work
Text: Colistin use has reemerged in recent years for the treatment of multidrug-resistant Gram-negative infections, which has prompted the performance of a large number of clinical and PK studies of its use in the last decade. However, there is still little pharmacological information in patients at high risk of under- or overdosing, such as those with CKD. […] CMS, the pro-drug, is renally eliminated by glomerular filtration and active tubular secretion. Previ ... || Recent toxicodynamic studies performed in the general population indicate that the risk of nephrotoxicity in patients receiving CMS increases with plasma colistin concentration exceeding 2.5 mg/L [13, 15]. This point, together with the lack of information on the minimum inhibitory concentrations (MIC) at the beginning of CMS treatment, have led to consideration of an average Css,avg of 2 mg/L as a target when initiating therapy. The median Css,avg in this study was 0.9 mg/L, which is far below the above-mentioned recommended 2 mg/L [11] but is also below those reported in previous ... || Blood samples were obtained just before the next dose on day 3–4 of the treatment. […] Concentrations of CMS and formed colistin in plasma were measured using a validated high-performance liquid chromatography (HPLC) method. The limit of quantification of the HPLC methods for colistin and CMS in plasma were 0.20 and 0.50 mg/L, respectively. As the plasma concentration-time profiles of formed colistin are almost flat, measured colistin concentrations were regarded as Cs ...

[2] = Worsened renal function (nephrotoxicity) at end of treatment, RIFLE criteria; details: multivariate logistic regression
Description: (§2) Patient data included demographic information, SOFA score [31], Charlson comorbidity index [32], CMS treatment (indication, daily and total cumulative dose measured in millions of IU and treatment duration). GFR at baseline and at EOT was calculated using the abbreviated Modification of Diet in Renal Disease equation (MDRD-4) [33]. WRF was defined as a decrease in GFR ≥25% and was classified according to the Risk, Injury, Failure, Loss of kidney function, and End-stage kidney disease (RIFLE) criteria [34]. Patients with WRF were followed up until GFR recovery or until hospital discharge. Information was collected on the concomitant use of other potential nephrotoxic drugs such as aminoglycosides, vancomycin, angiotensin II receptor blockers, angiotensin-converting enzyme (ACE) inhibitors, loop diuretics, intravenous dye, amphotericin B and non-steroidal anti-inflammatory drugs (NSAIDs), as well as the need for vasopressor drugs or discontinuation of CMS due to nephrotoxicity. Combination therapy with other antibiotics with potential activity or synergy with colistin was assessed.
(§3) Dichotomous data were compared using a χ^2 or Fisher’s exact test. Normally distributed continuous data are expressed as means and standard deviations (SD), and were compared using the t-test. Otherwise, values are presented as means with interquartile range (IQR) and were compared using the Mann-Whitney U-test. The baseline and clinical characteristics of patients receiving different CMS doses were compared using the ANOVA or Kruskal-Wallis test. Multivariate analysis of risk factors for colistin-associated nephrotoxicity was conducted using logistic regression. Univariate analyses were performed separately for each of the risk factor variables to ascertain the odds ratio (OR) and 95% confidence interval (CI). All clinically important covariates and those with p < 0.3 in the univariate analyses were included in the multivariate analysis.

[3] = Colistin plasma concentration at steady state (Css,avg) by HPLC in CMS-treated patients with CKD; format: in vivo, human
Description: We conducted a prospective observational study in a cohort of patients with CKD and infections caused by extensively drug-resistant P. aeruginosa treated with intravenous CMS for at least 48 h. The study was carried out at Hospital del Mar, a tertiary care university hospital in Barcelona (Spain), from January 2010 to August 2018. The study was approved by the local ethics committee (Comité Ètic d’Investigació Clínica del Parc de Salut Mar. Approval number 2011/4501/I). Exclusion criteria were age <18 years, pregnancy, and breast-feeding during the study period. A pharmacy-generated alarm system was used to identify patients under CMS treatment. […]
The dosage regimen and dose adjustments were determined by the treating physician. […]
Blood samples were obtained just before the next dose on day 3–4 of the treatment. […] Concentrations of CMS and formed colistin in plasma were measured using a validated high-performance liquid chromatography (HPLC) method. The limit of quantification of the HPLC methods for colistin and CMS in plasma were 0.20 and 0.50 mg/L, respectively. As the plasma concentration-time profiles of formed colistin are almost flat, measured colistin concentrations were regarded as Css,avg. The percentage of patients achieving the therapeutic target defined as a Css,avg of 2 mg/L was also analyzed. […] We calculated the expected Css based on the formula of Nation et al..

[4] = 30-day all-cause mortality in CMS-treated CKD patients; format: in vivo, human
Description: (§1) CKD was defined as kidney damage or GFR <60 mL/min/1.73 m^2 for 3 months or more, irrespective of cause. Infections were defined according to the Centers for Disease Control and Prevention. Clinical failure was defined as a lack of improvement in patients or in at least one of the initial symptoms, worsening or death. Clinical cure was defined as either the absence of symptoms or as a consistent improvement in the signs and symptoms of the infection. Thirty-day all-cause mortality was considered as death from any cause during the 30 days following EOT. Combined antibiotic treatment consisted of CMS plus meropenem or CMS plus amikacin.

[5] = human, in vivo; cited from earlier work
Description: Recent toxicodynamic studies performed in the general population indicate that the risk of nephrotoxicity in patients receiving CMS increases with plasma colistin concentration exceeding 2.5 mg/L [13, 15]. This point, together with the lack of information on the minimum inhibitory concentrations (MIC) at the beginning of CMS treatment, have led to consideration of an average Css,avg of 2 mg/L as a target when initiating therapy. […] Rates of nephrotoxicity in patients treated with CMS range from 20% to 60% according to recent studies using standardized criteria to evaluate nephrotoxicity. Even though WRF was reversible in more than 50% of patients, the diagnosis and management of this complication during CMS treatment is a challenge in daily clinical practice, since nephrotoxicity is potentially related to worse clinical outcomes. In two previous studies by our group, the pre ...

[6] = human, in vivo, iv
[7] = tested on: extensively drug-resistant Pseudomonas aeruginosa; test: Clinical cure / clinical failure in CKD patients treated with intravenous CMS; format: in vivo
Description: We conducted a prospective observational study in a cohort of patients with CKD and infections caused by extensively drug-resistant P. aeruginosa treated with intravenous CMS for at least 48 h. The study was carried out at Hospital del Mar, a tertiary care university hospital in Barcelona (Spain), from January 2010 to August 2018. The study was approved by the local ethics committee (Comité Ètic d’Investigació Clínica del Parc de Salut Mar. Approval number 2011/4501/I). Exclusion criteria were age <18 years, pregnancy, and breast-feeding during the study period. A pharmacy-generated alarm system was used to identify patients under CMS treatment. The study investigators performed the assessment from the first day of the treatment and informed consent was obtained from all participants or their legal representatives.
as §1
The dosage regimen and dose adjustments were determined by the treating physician. Since this study was performed over more than 8 years, colistin daily doses varied during this time. From 2010 to 2014, dose adjustments were made according to the package insert’s recommended dosing as follows: GFR ≥76 mL/min/1.73 m^2, 4–6 million IU daily in three doses; GFR 40–75 mL/min/1.73 m^2, 2–3 million IU daily in two doses; GFR 25–40 mL/min/1.73 m^2, 1.5–2 million IU daily divided in one or two doses and; GFR <25 mL/min/1.73 m^2, 0.6–1 million IU daily every 36 h. In 2014, a new protocol based on our previous experience was implemented in our center and CMS was adjusted as follows: GFR ≥90 mL/min/1.73 m^2, 9 million IU daily in three doses; GFR 50–89 mL/min/1.73 m^2, 3 million IU every 12 h, GFR 10–49 mL/min/1.73 m^2, 3 million IU per day; GFR ≤10 mL/min/1.73 m^2, 2 million IU/day. However, the final dose was chosen by the treating physician. CMS (colistimethate formulation for intravenous use, GES Genéricos Españoles®, Las Rozas, Spain was diluted in 100 mL of physiological saline before intravenous administration over 30 min. Each vial contained 1 million IU of CMS (equivalent to 80 mg CMS).

[8] = in vivo
Description: as §2, §3

[9] = Garonzik et al. pharmacokinetic study, ref [8]
[10] = diagnosis SSTI (skin and soft tissue infection)
[11] = diagnosis UTI (urinary tract infection)

For `CC[C@H](C)CCCCC(=O)N[C@@H](CCN)C(=O)N[C@H](C(=O)N[C@@H](CCN)C(=O)N[C@H]1CCNC(=O)[C@H]([C@@H](C)O)NC(=O)[C@H](CCN)NC(=O)[C@H](CCN)NC(=O)[C@H](CC(C)C)NC(=O)[C@@H](CC(C)C)NC(=O)[C@H](CCN)NC1=O)[C@@H](C)O` [colistin] (X1-[Dab]T[Dab][Dab][Dab][dL]L[Dab][Dab]T; lactam 4-C), the “Colistin Css,avg, median” value [1, 9] is listed as 2360 ng/mL, the “Colistin Css,avg, range” value [1, 9] is listed as 480 to 9380 ng/mL and the “Colistin plasma concentration in previous studies in the general population” value ([1]; IQR 0.11–5.99, ref [7],[13]) is listed as 1.06. For the same compound, the Half-life ([1]; assumed for steady state on day 3–4, ref [10]) was “approximately 14 h”, the “OR of Css as independent risk factor for colistin-associated nephrotoxicity at the end of treatment” value ([2]; 95% CI 1.02–10.1, p = 0.047) was 3.21 and the “Css,avg (colistin plasma concentration at steady-state), median (interquartile range)” value ([3]; all CKD patients n = 59, iv CMS, median daily dose 3 million IU, blood just before next dose on day 3–4, plasma, HPLC) was 900 ng/mL. For the same compound, the “Css,avg” value ([3]; patients with clinical cure (n = 43), unit printed in Table 1 only) was 800 ng/mL.

In the case of colistimethate sodium [CMS], the 30-day all-cause mortality ([4]; patients with clinical failure (n = 16)) is given as 13 (81.3) n (%), the 30-day all-cause mortality ([4]; patients without nephrotoxicity at EOT (n = 39)) is given as 10 (25.64) n (%) and the “CMS dose renally excreted in the urine” value ([1]; during the first 24 h after dosing, ref [21]) is given as “about 60%”. For the same compound, the “Urinary excretion of CMS after intravenous administration” value ([1]; patients, within the first 6 h, ref [22]) was “rapid urinary excretion”, the “OR of DOT (days of CMS treatment) as risk factor for colistin-associated nephrotoxicity at the end of treatment” value ([2]; p = 0.069) was 1.11 and the “Rates of nephrotoxicity in patients treated with CMS” value [5] was 20-60%. The Neurotoxicity [6] was “none of the patients in this cohort developed neurotoxicity”, the “Clinical cure, patients” value ([7]; 43 of 59 CKD patients, iv CMS, XDR P. aeruginosa infections) was 72.9% and the “Patients with clinical cure” value [7, 10] was 3 (60) n (%). For the same compound, the “Patients with clinical failure” value [7, 10] was 2 (40) n (%), the “Patients with clinical cure” value [7, 11] was 15 (93.6) n (%) and the “Patients with clinical failure” value [7, 11] was 1 (6.25) n (%). For the same compound, the “Patients with clinical cure” value ([7]; diagnosis bacteremia) was 3 (100) n (%), the “Patients with clinical failure” value ([7]; diagnosis bacteremia) was 0 (0) n (%) and the “Patients with clinical cure” value ([7]; diagnosis others) was 4 (57.1) n (%). For the same compound, the “Patients with clinical failure” value ([7]; diagnosis others) was 3 (42.9) n (%), the “Patients with clinical cure” value ([7]; diagnosis pneumonia) was 7 (50) n (%) and the “Patients with clinical failure” value ([7]; diagnosis pneumonia) was 7 (50) n (%). The “Patients with clinical cure” value ([7]; diagnosis tracheobronchitis) was 11 (78.6) n (%), the “Patients with clinical failure” value ([7]; diagnosis tracheobronchitis) was 3 (21.43) n (%) and the “GFR at EOT, median (interquartile range)” value [8] was 30.1 (6.51–81.4) mL/min/1.73 m^2. For the same compound, the “Incidence of WRF at EOT” value [8] was 33.9%, the “Recovery of baseline renal function” value [8] was 10 (52.6) n (%) and the “WRF (worsened renal function) at the end of treatment” value [8] was 20 (33.9) n (%). For the same compound, the “WRF at EOT, RIFLE class F (Failure)” value [8] was 3 (15) n (%), the “WRF at EOT, RIFLE class I (Injury)” value [8] was 10 (50) n (%) and the “WRF at EOT, RIFLE class R (Risk)” value [8] was 3 (15) n (%). The “WRF reversible, patients” value [8] was 52.6%.
